Laboratory results reported in patent US10988502B2, “Alpha-D-galactoside inhibitors of galectins” (GALECTO BIOTECH AB, priority 2016, dated 2021).

How the values were obtained:
Galectin-1 = Galectin-1 (Homo sapiens (Human), UniProt P09382); experiment: Fluorescence anisotropy assay, compound as inhibitor of galectin / fluorescein tagged saccharide probe interaction; assay type: binding
Method: (§1) The affinity of Example 1-32 for galectins were determined by a fluorescence anisotropy assay where the compound was used as an inhibitor of the interaction between galectin and a fluorescein tagged saccharide probe as described Sörme, P., Kahl-Knutsson, B., Huflejt, M., Nilsson, U. J., and Leffler H. (2004) Fluorescence polarization as an analytical tool to evaluate galectin-ligand interactions. Anal. Biochem. 334: 36-47, (Sörme et al., 2004) and Monovalent interactions of Galectin-1 By Salomonsson, Emma; Larumbe, Amaia; Tejler, Johan; Tullberg, Erik; Rydberg, Hanna; Sundin, Anders; Khabut, Areej; Frejd, Torbjorn; Lobsanov, Yuri D.; Rini, James M.; et al, From Biochemistry (2010), 49(44), 9518-9532, (Salonmonsson et al., 2010).

Galectin-3 = Galectin-3 (Homo sapiens (Human), UniProt P17931); experiment: as above; assay type: binding
Method: as §1

Sequence of Galectin-3 (P17931 whole entry): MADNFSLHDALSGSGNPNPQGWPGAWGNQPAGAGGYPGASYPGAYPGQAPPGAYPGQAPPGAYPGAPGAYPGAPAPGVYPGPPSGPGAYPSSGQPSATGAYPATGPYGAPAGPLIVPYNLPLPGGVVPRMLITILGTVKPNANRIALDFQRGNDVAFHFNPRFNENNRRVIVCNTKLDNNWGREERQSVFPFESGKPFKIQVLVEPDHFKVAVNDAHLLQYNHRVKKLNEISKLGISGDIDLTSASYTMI
Sequence of Galectin-1 (P09382 whole entry): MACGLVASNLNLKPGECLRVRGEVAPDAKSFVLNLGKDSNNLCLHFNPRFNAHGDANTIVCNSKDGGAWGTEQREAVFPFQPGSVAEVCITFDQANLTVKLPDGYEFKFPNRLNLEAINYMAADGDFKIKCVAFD

Structure (SMILES)	Kd (Galectin-1) [µM]	Kd (Galectin-3) [µM]
OC[C@H]1O[C@H](Sc2ccc(F)c(Br)c2)[C@H](O)[C@@H](n2cc(-c3nccs3)nn2)[C@H]1O [Example 27, 3-Bromo-4-fluoro-phenyl 3-deoxy-3-[4-(2-thiazolyl)-1H-1,2,3-triazol-1-yl]-1-thio-α-D-galactopyranoside]	0.49	4.7
OC[C@H]1O[C@H](Sc2cc(Cl)cc(Cl)c2)[C@H](O)[C@@H](n2cc(-c3nccs3)nn2)[C@H]1O [Example 24, 3,5-Dichlorophenyl 3-deoxy-3-[4-(2-thiazolyl)-1H-1,2,3-triazol-1-yl]-1-thio-α-D-galactopyranoside]	0.34	1.6
OC[C@H]1O[C@H](Sc2cc(Cl)ccc2Cl)[C@H](O)[C@@H](n2cc(-c3nccs3)nn2)[C@H]1O [Example 28, 2,5-Dichlorophenyl 3-deoxy-3-[4-(2-thiazolyl)-1H-1,2,3-triazol-1-yl]-1-thio-α-D-galactopyranoside]	0.91	8.2
N#Cc1cc(F)c(S[C@H]2OC(CO)[C@H](O)[C@H](n3cc(-c4ccsc4)nn3)C2O)cc1Cl (stereo partly drawn) [Example 2, 2-Chloro-5-fluoro-benzonitril-4-yl 3-deoxy-3-[4-(3-thiophenyl)-1H-1,2,3-triazol-1-yl]-1-thio-α-D-galactopyranoside]	0.19	1.95
OC[C@H]1O[C@H](Sc2ccc(Cl)c(Br)c2)[C@H](O)[C@@H](n2cc(-c3nccs3)nn2)[C@H]1O [Example 25, 3-Bromo-4-chlorophenyl 3-deoxy-3-[4-(2-thiazolyl)-1H-1,2,3-triazol-1-yl]-1-thio-α-D-galactopyranoside]	0.44	4.4
N#Cc1ccc(S[C@H]2OC(CO)[C@H](O)[C@H](n3cc(-c4cscn4)nn3)C2O)cc1Cl (stereo partly drawn) [Example 13, 2-Chloro-benzonitril-4-yl 3-deoxy-3-[4-(4-thiazolyl)-1H-1,2,3-triazol-1-yl]-1-thio-α-D-galactopyranoside]	0.37	6.1
OC[C@H]1O[C@H](Sc2cc(Cl)c(F)c(Cl)c2)[C@H](O)[C@@H](n2cc(-c3cccs3)nn2)[C@H]1O [Example 8, 3,5-Dichloro-4-fluoro-phenyl 3-deoxy-3-[4-(2-thiophenyl)-1H-1,2,3-triazol-1-yl]-1-thio-α-D-galactopyranoside]	0.92	2.3
N#Cc1ncc(S[C@H]2O[C@H](CO)[C@H](O)[C@H](n3cc(-c4nccs4)nn3)[C@H]2O)cc1Cl [Example 23, 5-Chloro-6-cyano-pyridine-3-yl 3-deoxy-3-[4-(2-thiazolyl)-1H-1,2,3-triazol-1-yl]-1-thio-α-D-galactopyranoside]	0.44	4.4
OC[C@H]1O[C@H](Sc2ccc(Cl)c(Cl)c2)[C@H](O)[C@@H](n2cc(-c3ccc(F)s3)nn2)[C@H]1O [Example 9, 3,4-Dichlorophenyl 3-deoxy-3-[4-(5-fluoro-2-thiophenyl)-1H-1,2,3-triazol-1-yl]-1-thio-α-D-galactopyranoside]	0.55	0.97
OCC1O[C@H](Sc2ccc(Cl)c(Cl)c2)C(O)[C@@H](n2cc(-c3nc(Br)cs3)nn2)[C@H]1O (stereo partly drawn) [Example 29, 3,4-dichlorophenyl 3-deoxy-3-[4-(4-bromo-2-thiazol-2-yl)-1H-1,2,3-triazol-1-yl]-1-thio-α-D-galactopyranoside]	0.15	0.81
OC[C@H]1O[C@H](Sc2cncc(Br)c2)[C@H](O)[C@@H](n2cc(-c3cscn3)nn2)[C@H]1O [Example 10, 5-Bromopyridin-3-yl 3-deoxy-3-[4-(4-thiazolyl)-1H-1,2,3-triazol-1-yl]-1-thio-α-D-galactopyranoside]	0.25	4.1
Cc1nc(-c2cn([C@@H]3[C@@H](O)[C@@H](Sc4cncc(Br)c4)O[C@H](CO)[C@@H]3O)nn2)cs1 [Example 15, 5-Bromopyridin-3-yl 3-deoxy-3-[4-(2-methyl-4-thiazolyl)-1H-1,2,3-triazol-1-yl]-1-thio-α-D-galactopyranoside]	0.64	3.2
